From US20120065187A1 (ALCON RESEARCH, LTD, priority 2008, published 2012)

Experiments:
CD-1 mice = assay: Model of scratching induced by histamine in CD-1 mice (assessment of H4 antagonism); assay type: in vivo; details: 30 mg/kg oral gavage 30 min before i.d. histamine; bouts counted for 20 minutes; female CD-1 mice
Procedure: Assessment of H4 Antagonism—Model of Scratching Induced by Histamine in CD-1 mice.
Female CD-1 mice (Charles River, Hollister, Calif.), approximately 10 weeks old were housed under controlled conditions (12 h light: 12 h dark, 21° C.) and allowed ad libitum access to food (Purina LabDiet 5P14) and water. Animals were deprived of access to food and water for 1 hour during the experimental itch protocol. All studies were performed under the guidelines of the Institutional Animal Care and Use Committee of Kalypsys, Inc.
At least 24 hours prior to study initiation, the hair on the rostral dorsum of the animal was clipped to clear a location for intradermal (i.d.) injection of pruritogen (histamine, dissolved in Dulbecco's PBS [pH 7.4] at a concentration of 10 μmol per 20 μL). Animals were dosed by oral gavage with vehicle (9/0.5/0.5/90 PEG-400/Tween-80/PVP-K30/1% carboxymethylcellulose in water) or test compounds (formulated as suspensions in vehicle) at 30 mg/kg in 200 μL by means of a 20 gauge 1.5″ feeding needle affixed to a 1 mL syringe. There were 8 mice per study group. Thirty minutes after oral dosing, animals were injected i.d. with 20 μL of histamine. Immediately afterward animals were placed into individual sections of a standard acrylic cage for observation, which was recorded digitally for a 20 minute period by video cameras (Panasonic SDR-S70/PC) for later review.
Quantitation of induced itch was measured as described previously (Bell, J. K. et al., British Journal of Pharmacology, 142:374-380, 2004) by counting the number of scratching bouts per animal in the 20 minute period after i.d. injection. A scratching bout was defined as three rapid scratch movements of the hind paw in the area of the injection site. Activity with the fore paws was deemed to be grooming and not scratching, and thus was not counted. All data were analyzed using GraphPad Prism (San Diego, Calif.) software, and reported as mean percentage reduction in scratching bouts versus vehicle control. The significance of antagonist effect on agonist-induced itching was analyzed using the nonparametric Mann-Whitney test with P values <0.05 being designated as statistically significant.
Data reported as NT refers to the example having been not tested. It is expected that these compounds when tested will be active and will have utility similar to those that have been tested. In Table 2 below, entries with superscript “1” are statistically significant according to the criteria outlined in the protocol above. Entries with superscript “2” are examples that have been tested on two separate days and the results reported below are the mean of the two experiments

human H1 = biological target: T1, human H1 (Homo sapiens, UniProt P35367); assay: In vitro histamine receptor cell-based assay (aequorin bioluminescence), H1 antagonism; details: CHO-K1 cells expressing human H1 and aequorin; histamine at EC80; read-out: H1 Antagonist EC50
T1 construct: host or cells: CHO-K1
Procedure, shortened: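 Stable CHO-K1 lines expressing human H1 or H4 (H4 with Gα16) plus mitochondrial aequorin, loaded 4 h with 5 μM coelenterazine-h at ~21 °C. Compounds preincubated 15 min, then histamine at EC80 added; bioluminescence decrease (AUC or max–min) expressed as % of positive control (diphenhydramine for H1, JNJ7777120 for H4, 10 μM).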

human H4 = biological target: T2, human H4 (Homo sapiens, UniProt Q9H3N8); assay: In vitro histamine receptor cell-based assay (aequorin bioluminescence), H4 antagonism; details: CHO-K1 cells expressing human H4, aequorin and Gα16; histamine at EC80; read-out: H4 Antagonist EC50
T2 construct: host or cells: CHO-K1
Procedure, shortened: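 CHO-K1 cells stably expressing human H4, Gα16 and mitochondrial aequorin, loaded with 5 μM coelenterazine-h, preincubated 15 min at room temperature with compound, then challenged with histamine at EC80.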

T1 sequence (P35367 whole entry): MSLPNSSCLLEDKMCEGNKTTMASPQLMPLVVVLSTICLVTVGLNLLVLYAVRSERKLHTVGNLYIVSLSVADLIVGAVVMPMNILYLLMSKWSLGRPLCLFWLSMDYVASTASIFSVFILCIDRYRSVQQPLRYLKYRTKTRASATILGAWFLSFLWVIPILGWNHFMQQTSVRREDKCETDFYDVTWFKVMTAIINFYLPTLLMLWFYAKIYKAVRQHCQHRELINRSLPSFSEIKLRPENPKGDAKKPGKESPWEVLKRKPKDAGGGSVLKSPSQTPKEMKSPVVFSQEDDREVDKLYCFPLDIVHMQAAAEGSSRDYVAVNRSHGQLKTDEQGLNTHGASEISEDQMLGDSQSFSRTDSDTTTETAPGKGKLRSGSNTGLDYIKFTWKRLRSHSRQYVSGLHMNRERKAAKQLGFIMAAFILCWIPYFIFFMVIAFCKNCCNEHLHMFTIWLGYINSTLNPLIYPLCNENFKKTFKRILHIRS
T2 sequence (Q9H3N8 whole entry): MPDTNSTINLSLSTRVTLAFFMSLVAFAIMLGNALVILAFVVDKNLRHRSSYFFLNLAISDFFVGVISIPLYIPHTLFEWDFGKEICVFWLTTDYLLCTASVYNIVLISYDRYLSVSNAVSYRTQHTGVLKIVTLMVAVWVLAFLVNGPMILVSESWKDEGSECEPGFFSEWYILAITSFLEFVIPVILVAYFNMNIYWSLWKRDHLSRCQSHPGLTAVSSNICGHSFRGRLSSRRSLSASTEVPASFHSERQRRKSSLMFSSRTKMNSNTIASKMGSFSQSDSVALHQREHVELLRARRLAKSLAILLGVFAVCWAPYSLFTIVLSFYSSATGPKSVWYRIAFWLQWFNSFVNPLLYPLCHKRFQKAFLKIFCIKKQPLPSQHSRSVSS

SMILES	Scratching Bouts (% change from vehicle control) (CD-1 mice)	EC50 (human H1)	EC50 (human H4)
CN1CCN(c2nc3ccc(Cl)cc3n3cnnc23)CC1 [Example 55, 8-chloro-4-(4-methylpiperazin-1-yl)-[1,2,4]triazolo[4,3-a]quinoxaline]	−65^1,2%	> 10 µM	< 10 µM
Clc1ccc2nc(N3CCNCC3)c3nncn3c2c1 [Example 57, 8-chloro-4-(piperazin-1-yl)-[1,2,4]triazolo[4,3-a]quinoxaline]	−66^1%	> 10 µM	< 10 µM
